Measurements as given in patent US6147097A, “Imidazole derivatives as anti-HIV agents” (Shionogi & Co., Ltd., priority 1994, dated 2000).
Converted amounts (≈) assume the structure as drawn. Like-named read-outs stand apart in the source and are kept apart here.

What was measured:
[1] = cytotoxicity in MT-4 cells (MTT, culture medium in place of HIV); assay type: cell-based; settings: human
Experimental: (§1) The anti-HIV activity of each of the compounds produced in Examples was assayed by the following procedures. (1) Human T cell line MOLT-4 clone 8 persistently infected by HIV (HTLV-IIIB strain) was cultured in an RPMI-1640 medium supplemented with 10% fetal calf serum, the culture supernatant was filtered, and the titer of virus was determined; the culture supernatant was stored at -80° C. On the other hand, the test compound was diluted with the above culture medium to predetermined concentrations and distributed in 50 μl aliquots into a 96-well microtiter plate. Then, d suspension of MT-4 cells was added in 100 μl aliquots (3.5×10^4 cells per well) and then the above HIV-containing supernatant diluted with the above culture medium was added, 50 μl (60 pfu (plaque forming units)) per well. (2) The plate was incubated in a CO2 incubator at 37° C. for 5 days. Then, 30 μl/well of 3-(4,5-dimethyl thiazol-2-yl)-2,5-diphenyltetrazolium bromide (MTT) (5 mg/ml PBS) was added and the incubation was further continued for 1 hour. The surviving cells reducing MTT yield precipitation of formazan. Therefore, 150 μl portions of the culture supernatant were removed from all wells and, instead, 150 μl of a solution (10% Triton X-100 and 0.4% (v/v) HCl-added isopropyl alcohol) was added. The plate was shaken on a plate mixer to dissolve the formazan. The OD of formazan was measured with a microreader at 560 nm arid 690 nm (reference wavelength) and the result was compared with that of control.
The cytotoxicity of each of the compounds produced in Examples was assayed. In place of the HIV-containing supernatant (the virus suspension) in (1) in Test Example 1, 50 μl of the culture medium was added to each well, and the cytotoxicity was determined in the same manner as that for (2) in Test Example 1.

[2] = target: T1, purified recombinant HIV-1 reverse transcriptase (Human immunodeficiency virus type 1 group M subtype B, UniProt P04585); assay: reverse transcriptase inhibition, poly(rA)/(dT) template primer, [3H]dTTP uptake; assay type: biochemical
T1 construct: purified recombinant HIV-1 reverse transcriptase; made in house; host or cells: Escherichia coli
Experimental: The reverse transcriptase activity of each of the compounds synthesized in Examples was assayed by the following procedures.
Using the purified recombinant HIV-1 reverse transcriptase RT, E.C. 2.7.7.49) obtained by expression in Escherichia Coli, a 96-well plate assay system was established for assaying a large number of samples. The RT inhibitory activity was determined as follows. To 11 μl of a solution of the test inhibitor in water or MSO was added 100 μl of a reaction mixture (0.1 unit/100 μl RT, 50 mM Tris-HCl pH 8.3, 150 mM KCl, 10 mM MgCl2, 3 mM dithiothreitol, 0.1% Nonidet P-40, 10 μg/ml. poly(rA) and 10 μg/ml (dT)12-1.8 as template and primer, and 4 μM dTTP, 1 μCi/100 μl [^3 H]dTTP as substrate) and the mixture was incubated at 37° C. for 1 hour and, then, immediately cooled on ice. Using a cell harvester, the reaction mixture was transferred to a DEAE-filter mat (LKB-Pharmacia). Then, using the wash line of the cell harvester, the cells were washed twice with 5% Na2 HPO4 /H2 O and once with water and dried at 95° C. for 15 minutes. […] The inhibitory activity was expressed in percent inhibition relative to the uptake on water or DMSO control.

HIV (HTLV-IIIB strain) = assay: microbe, parasite or virus in culture; assay type: cell-based; settings: Human immunodeficiency virus 1, IIIB, MT4, 120 h; MT-4 cells, 60 pfu HIV per well, 37° C., 5 days, MTT; Tables 1 and 2; read-out: EC50
Experimental: as §1, with “(1) Human T cell line MOLT-4 clone 8 persistently infected by HIV (HTLV-IIIB strain) was cultured in an RPMI-1640 medium supplemented with 10% fetal calf serum, the culture supernatant was filtered, and the titer of virus was determined; the culture supernatant was stored at -80° C.” left out, “formazan.” for “formazan. The OD of formazan was measured with a microreader at 560 nm arid 690 nm (reference wavelength) and the result was compared with that of control.”

[3] = MT-4 cells, no virus, 37° C., 5 days, MTT, Table 3, read-out: CC50

| SMILES | CC50 at 120 h ([1]; mt-4 cells) | IC50 [2] | EC50 (HIV (HTLV-IIIB strain)) | CC50 at 120 h [1, 3] |
| --- | --- | --- | --- | --- |
| CC(C)c1nc(CCOC(N)=O)n(Cc2ccccc2[N+](=O)[O-])c1Sc1cc(Cl)cc(Cl)c1 [Compound 128c, 2-(2-Carbamoyloxyethyl)-5-(3,5-dichlorophenylthio)-4-isopropyl-1-(o-nitrobenzyl)-1H-imidazole] | 6.3 to 12.5 µg/mL (≈ 12.4 to 24.5 µM) | > 196 µM | 0.25 µg/mL (≈ 0.491 µM) | – |
| CCOC(=O)Cn1c(CCOCc2ccccc2)nc(C(C)C)c1Sc1cc(Cl)cc(Cl)c1 [Compound 130c] | 12.5 µg/mL (≈ 24.6 µM) | > 197 µM | 0.5 µg/mL (≈ 0.985 µM) | – |
| CC(C)c1nc(CCOCc2ccccc2)n(CCO)c1Sc1cc(Cl)cc(Cl)c1 [Compound 130d, 2-(2-(2-benzyloxyethyl)-5-(3,5-dichlorophenylthio)-4-isopropyl-1H-imidazol-1-yl)ethanol] | 6.3 µg/mL (≈ 13.5 µM) | > 215 µM | 0.5 to 1 µg/mL (≈ 1.07 to 2.15 µM) | – |
| CC(C)c1nc(CCO)n(CCO)c1Sc1cc(Cl)cc(Cl)c1 [Compound 131c, 2-(5-(3,5-dichlorophenylthio)-2-(2-hydroxyethyl)-4-isopropyl-1H-imidazol-1-yl)ethanol] | 6.3 to 12.5 µg/mL (≈ 16.8 to 33.3 µM) | 2.58 µM | < 0.008 µg/mL | – |
| CCOC(=O)Cn1c(CCCOCc2ccccc2)nc(C(C)C)c1Sc1cc(Cl)cc(Cl)c1 [Compound 136d, (2-(3-benzyloxypropyl)-5-(3,5-dichlorophenylthio)-4-isopropyl-1H-imidazol-1-yl)-ethyl acetate] | 12.5 µg/mL | > 192 µM | 0.5 µg/mL | – |
| CC(C)c1nc(CCCOCc2ccccc2)n(CCO)c1Sc1cc(Cl)cc(Cl)c1 [Compound 136e, 2-(2-(3-benzyloxypropyl)-5-(3,5-dichlorophenylthio)-4-isopropyl-1H-imidazol-1-yl)-ethanol] | 6.3 to 12.5 µg/mL (≈ 13.1 to 26.1 µM) | > 209 µM | 0.5 to 1 µg/mL (≈ 1.04 to 2.09 µM) | – |
| CC(C)c1nc(CCCO)n(C)c1Sc1cc(Cl)cc(Cl)c1 [Compound 137a, 3-(5-(3,5-dichlorophenylthio)-4-isopropyl-1-methyl-1H-imidazol-2-yl)-propan-1-ol] | 6.3 to 12.5 µg/mL (≈ 17.5 to 34.8 µM) | 5.57 µM | 0.008 µg/mL (≈ 0.0223 µM) | – |
| CCn1c(CCCO)nc(C(C)C)c1Sc1cc(Cl)cc(Cl)c1 [Compound 137b, 3-(5-(3,5-dichlorophenylthio)-1-ethyl-4-isopropyl-1H-imidazol-2-yl)-propan-1-ol] | 6.3 to 12.5 µg/mL (≈ 16.9 to 33.5 µM) | 0.991 µM | 0.005 to 0.01 µg/mL (≈ 0.0134 to 0.0268 µM) | – |
| CC(C)c1nc(CCCO)n(Cc2ccncc2)c1Sc1cc(Cl)cc(Cl)c1 [Compound 137c, 3-(5-(3,5-dichlorophenylthio)-4-isopropyl-1-(pyridin-4-ylmethyl)-1H-imidazol-2-yl)-propan-1-ol] | 6.3 to 12.5 µg/mL (≈ 14.4 to 28.6 µM) | 0.71 µM | 0.003 to 0.005 µg/mL (≈ 0.00687 to 0.0115 µM) | – |
| CC(C)c1nc(CCCO)n(CCO)c1Sc1cc(Cl)cc(Cl)c1 [Compound 137d, 3-(5-(3,5-dichlorophenylthio)-1-(2-hydroxyethyl)-4-isopropyl-1H-imidazol-2-yl)-propan-1-ol] | 6.3 to 12.5 µg/mL (≈ 16.2 to 32.1 µM) | 6.68 µM | < 0.008 µg/mL | – |
| Cc1nc(C(C)C)c(Sc2cc(Cl)cc(Cl)c2)n1C [Compound I-1, 5-(3,5-dichlorophenylthio)-1,2-dimethyl-4-isopropyl-1H-imidazole] | – | 3.81 µM | 0.008 µg/mL (≈ 0.0254 µM) | 6.3 to 12.5 µg/mL (≈ 20 to 39.6 µM) |
| Cc1cc(C)cc(Sc2c(C(C)C)nc(C)n2C)c1 [Compound I-2, 5-(3,5-dimethylphenylthio)-1,2-dimethyl-4-isopropyl-1H-imidazole] | – | 7.65 µM | 0.008 µg/mL (≈ 0.0292 µM) | 25 µg/mL (≈ 91.1 µM) |
| Cc1nc(C(C)C)c(Sc2cccc(Cl)c2)n1C [Compound I-3, 5-(3-chlorophenylthio)-1,2-dimethyl-4-isopropylimidazole] | – | 3.56 µM | 0.03 µg/mL (≈ 0.107 µM) | 12.5 µg/mL (≈ 44.5 µM) |
| Cc1cc(C)cc(Sc2c(C(C)C)nc(C)n2Cc2ccccc2)c1 [Compound I-4, 1-benzyl-5-(3,5-dimethylphenylthio)-4-isopropyl-2-methylimidazole] | – | 4.85 µM | 0.016 µg/mL (≈ 0.0456 µM) | 12.5 µg/mL (≈ 35.7 µM) |
| CCc1nc(C)n(C)c1Sc1cc(C)cc(C)c1 [Compound I-5, 1,2-dimethyl-5-(3,5-dimethylphenylthio)-4-ethylimidazole] | – | 8.83 µM | 0.06 µg/mL (≈ 0.23 µM) | 1 to 10 µg/mL (≈ 3.84 to 38.4 µM) |
| Cc1cc(C)cc(Sc2c(C(C)C)nc(C=O)n2C)c1 [Compound I-6, 5-(3,5-dimethylphenylthio)-4-isopropyl-1-methyl-1H-imidazole-2-carbaldehyde] | – | 127 µM | 0.03 to 0.06 µg/mL (≈ 0.104 to 0.208 µM) | 10 µg/mL (≈ 34.7 µM) |
| CC(C)c1nc(C=O)n(C)c1Sc1cc(Cl)cc(Cl)c1 [Compound I-7, 5-(3,5-dichlorophenylthio)-4-isopropyl-1-methyl-1H-imidazole-2-carbaldehyde] | – | 131 µM | 0.13 µg/mL (≈ 0.395 µM) | 10 to 100 µg/mL (≈ 30.4 to 304 µM) |
| CC(C)c1nc(CO)n(C)c1Sc1cc(Cl)cc(Cl)c1 [Compound I-8, [5-(3,5-dichlorophenylthio)-4-isopropyl-1-methyl-1H-imidazol-2-yl]methanol] | – | 3.02 µM | 0.016 µg/mL (≈ 0.0483 µM) | 12.5 µg/mL (≈ 37.7 µM) |
| Cc1cc(C)cc(Sc2c(C(C)C)nc(CO)n2C)c1 [Compound I-9, [5-(3,5-dimethylphenylthio)-4-isopropyl-1-methyl-1H-imidazol-2-yl]methanol] | – | 8.26 µM | 0.008 µg/mL (≈ 0.0275 µM) | 10 µg/mL (≈ 34.4 µM) |
| Cc1cc(C)cc(Sc2c(C(C)C)nc(C=NO)n2C)c1 [Compound I-10, 5-(3,5-dimethylphenylthio)-4-isopropyl-1-methyl-1H-imidazole-2-carbaldehyde oxime] | – | > 330 µM | 1 µg/mL (≈ 3.3 µM) | > 100 µg/mL |
| Cc1cc(C)cc(Sc2c(C(C)C)nc(C=NN)n2C)c1 [Compound I-11, 5-(3,5-dimethylphenylthio)-4-isopropyl-1-methyl-1H-imidazole-2-carbaldehyde hydrazone] | – | 54.6 µM | 0.25 µg/mL (≈ 0.827 µM) | 1 to 10 µg/mL (≈ 3.31 to 33.1 µM) |
| CC(C)C(=O)c1nc(C(C)C)c(Sc2cc(Cl)cc(Cl)c2)n1C [Compound I-12, [5-(3,5-dichlorophenylthio)-4-isopropyl-1-methyl-1H-imidazol-2-yl] isopropyl ketone] | – | > 269 µM | 50 µg/mL (≈ 135 µM) | 50 to 100 µg/mL (≈ 135 to 269 µM) |
| CC(C)c1nc(CO)n(C)c1Sc1cccc(Cl)c1 [Compound I-13, [5-(3-chlorophenylthio)-4-isopropyl-1-methyl-1H-imidazol-2-yl]methanol] | – | 2.7 µM | 0.06 µg/mL (≈ 0.202 µM) | 25 µg/mL (≈ 84.2 µM) |
| CC(C)c1nc(CO)n(C)c1Sc1cccc([N+](=O)[O-])c1 [Compound I-14, [4-isopropyl-1-methyl-5-(3-nitrophenylthio)-1H-imidazol-2-yl]methanol] | – | 4.23 µM | 0.03 µg/mL (≈ 0.0976 µM) | 12.5 to 25 µg/mL (≈ 40.7 to 81.3 µM) |
| CCCCn1c(CO)nc(C(C)C)c1Sc1cc(Cl)cc(Cl)c1 [Compound I-15, [1-n-butyl-5-(3,5-dichlorophenylthio)-4-isopropyl-1H-imidazol-2-yl]methanol] | – | 2.01 µM | 0.005 to 0.01 µg/mL (≈ 0.0134 to 0.0268 µM) | 6.3 to 12.5 µg/mL (≈ 16.9 to 33.5 µM) |
